Residues, ends and D or L forms follow the SMILES beside them.
Columns and labels:
Assay in all cases: Antibiotic sensitivity assay (antibiotic discs)
Type in all cases: cell-based, Bacillus subtilis
Bacillus strain 15A-P4 = conditions: antibiotic disc on TSA with 1.0% 15A-P4, 32° C. overnight
Description: (§1) After the plates were solidified, the antibiotic discs were placed onto the agar surface. The plates were incubated at 32° C. overnight. Inhibitory zones were measured in millimeters.

Bacillus strain 22C-P1 = conditions: antibiotic disc on TSA with 1.0% 22C-P1, 32° C. overnight
Description: as §1

Bacillus strain 3A-P4 = conditions: antibiotic disc on TSA with 1.0% 3A-P4, 32° C. overnight
Description: as §1

Compound: CC[C@H](C)[C@H](N)C1=N[C@H](C(=O)N[C@@H](CC(C)C)C(=O)N[C@H](CCC(=O)O)C(=O)N[C@H](C(=O)N[C@H]2CCCCNC(=O)[C@H](CC(N)=O)NC(=O)[C@@H](CC(=O)O)NC(=O)[C@H](Cc3cnc[nH]3)NC(=O)[C@@H](Cc3ccccc3)NC(=O)[C@H]([C@@H](C)CC)NC(=O)[C@@H](CCCN)NC2=O)[C@@H](C)CC)CS1 [Bacitracin] (HELM PEPTIDE1{[CC[C@H](C)[C@H](N)C1=N[C@H](C(=O)[*:2])CS1].L.[dE].I.K.[NCCC[C@@H](N[*:1])C(=O)[*:2]].I.[dF].H.[dD].N}$PEPTIDE1,PEPTIDE1,5:R3-11:R2$$$V2.0)
- Inhibitory Zones (Bacillus strain 15A-P4): 8 Millimeters
- Inhibitory Zones (Bacillus strain 22C-P1): 8 Millimeters
- Inhibitory Zones (Bacillus strain 3A-P4): 8 Millimeters

Compound: CCC[C@@H]1C[C@@H](C(=O)N[C@@H]([C@H]2O[C@H](SC)[C@H](O)[C@@H](O)[C@H]2O)[C@@H](C)O)N(C)C1 [Lincomycin]
- Inhibitory Zones (Bacillus strain 15A-P4): 9 Millimeters
- Inhibitory Zones (Bacillus strain 22C-P1): 8 Millimeters
- Inhibitory Zones (Bacillus strain 3A-P4): 8 Millimeters

Compound: CN(C)[C@@H]1C(=O)C(C(N)=O)=C(O)[C@@]2(O)C(=O)C3=C(O)c4c(O)cccc4[C@@](C)(O)[C@H]3[C@H](O)[C@@H]12 [Oxytetracycxyline]
- Inhibitory Zones (Bacillus strain 15A-P4): 14 Millimeters
- Inhibitory Zones (Bacillus strain 22C-P1): 24 Millimeters
- Inhibitory Zones (Bacillus strain 3A-P4): 24 Millimeters

Compound: CN(C)[C@@H]1C(O)=C(C(N)=O)C(=O)[C@@]2(O)C(O)=C3C(=O)c4c(O)cccc4[C@@](C)(O)[C@H]3C[C@@H]12 [Tetracycline]
- Inhibitory Zones (Bacillus strain 15A-P4): 14 Millimeters
- Inhibitory Zones (Bacillus strain 22C-P1): 21 Millimeters
- Inhibitory Zones (Bacillus strain 3A-P4): 26 Millimeters

Compound: Gentamycin
- Inhibitory Zones (Bacillus strain 15A-P4): 22 Millimeters
- Inhibitory Zones (Bacillus strain 22C-P1): 22 Millimeters
- Inhibitory Zones (Bacillus strain 3A-P4): 26 Millimeters

Compound: Neomycin
- Inhibitory Zones (Bacillus strain 15A-P4): 12 Millimeters
- Inhibitory Zones (Bacillus strain 22C-P1): 12 Millimeters
- Inhibitory Zones (Bacillus strain 3A-P4): 16 Millimeters

Compound: Penicillin
- Inhibitory Zones (Bacillus strain 15A-P4): 11 Millimeters
- Inhibitory Zones (Bacillus strain 22C-P1): 13 Millimeters
- Inhibitory Zones (Bacillus strain 3A-P4): 0 Millimeters

— US20100209406A1, “BACILLUS STRAINS AND METHODS FOR REDUCING E. COLI DISEASE AND ENHANCING PERFORMANCE” (priority 2004, published 2010)
